The results in this text go back to ChEMBL document CHEMBL5465560, “Selectivity Literature for EUbOPEN Chemogenomic Library” (2024).

Assay [1] concerns the target Dual specificity mitogen-activated protein kinase kinase 1 (Homo sapiens, UniProt Q02750). The experiment in a line: Selectivity interaction (Kinase panel (Z-LYTE Assay)) EUB0001632a MAP2K1. Conditions: at 10 µM.
Assay [2] deals with T1, Serine/threonine-protein kinase tousled-like 1 (Homo sapiens) (UniProt Q9UKI8).
T1 sequence (whole entry): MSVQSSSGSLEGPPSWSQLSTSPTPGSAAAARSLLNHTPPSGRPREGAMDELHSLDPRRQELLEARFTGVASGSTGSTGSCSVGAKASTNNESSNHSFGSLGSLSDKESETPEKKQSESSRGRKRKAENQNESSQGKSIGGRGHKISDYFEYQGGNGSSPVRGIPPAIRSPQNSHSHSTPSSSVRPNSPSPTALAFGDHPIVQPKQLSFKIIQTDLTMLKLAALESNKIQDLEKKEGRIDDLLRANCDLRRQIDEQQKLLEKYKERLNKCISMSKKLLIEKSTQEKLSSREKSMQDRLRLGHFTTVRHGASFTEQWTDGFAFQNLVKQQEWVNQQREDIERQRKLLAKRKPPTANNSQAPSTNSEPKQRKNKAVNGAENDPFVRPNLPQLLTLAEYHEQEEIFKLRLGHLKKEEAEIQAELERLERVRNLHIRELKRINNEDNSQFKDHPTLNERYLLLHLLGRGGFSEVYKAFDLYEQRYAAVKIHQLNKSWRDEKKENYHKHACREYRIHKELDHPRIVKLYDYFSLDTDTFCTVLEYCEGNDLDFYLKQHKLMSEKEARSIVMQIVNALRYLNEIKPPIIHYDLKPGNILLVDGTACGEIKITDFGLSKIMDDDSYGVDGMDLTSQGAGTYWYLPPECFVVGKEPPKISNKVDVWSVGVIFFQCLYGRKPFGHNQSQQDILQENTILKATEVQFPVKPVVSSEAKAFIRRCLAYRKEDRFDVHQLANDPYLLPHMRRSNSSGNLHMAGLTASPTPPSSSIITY
Conditions: at 10 µM.

The target of assay [3] is T2, Interleukin-1 receptor-associated kinase 4 (Homo sapiens, UniProt Q9NWZ3).
T2 sequence (Q9NWZ3 whole entry): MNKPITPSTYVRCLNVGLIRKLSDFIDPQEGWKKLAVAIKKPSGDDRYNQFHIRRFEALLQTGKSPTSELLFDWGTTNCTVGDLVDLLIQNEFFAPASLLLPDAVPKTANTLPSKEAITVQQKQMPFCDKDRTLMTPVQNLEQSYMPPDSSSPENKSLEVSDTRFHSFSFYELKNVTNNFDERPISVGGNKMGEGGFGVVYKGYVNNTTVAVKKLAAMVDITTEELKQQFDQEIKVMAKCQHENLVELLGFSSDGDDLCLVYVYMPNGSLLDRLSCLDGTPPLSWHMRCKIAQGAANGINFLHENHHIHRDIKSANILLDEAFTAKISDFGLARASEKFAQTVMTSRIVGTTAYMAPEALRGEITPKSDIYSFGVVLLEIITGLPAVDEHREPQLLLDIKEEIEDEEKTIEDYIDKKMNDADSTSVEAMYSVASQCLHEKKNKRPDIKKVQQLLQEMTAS
As to the kind of experiment: Selectivity interaction (Kinase counterscreening (biochemical assay)) EUB0000604a IRAK4. Background: A counterscreen serves to expose hits that act by an unwanted route or on another target.

In assay [4] the target is T3, Dual serine/threonine and tyrosine protein kinase (Homo sapiens) (UniProt Q6XUX3).
T3 sequence (whole entry): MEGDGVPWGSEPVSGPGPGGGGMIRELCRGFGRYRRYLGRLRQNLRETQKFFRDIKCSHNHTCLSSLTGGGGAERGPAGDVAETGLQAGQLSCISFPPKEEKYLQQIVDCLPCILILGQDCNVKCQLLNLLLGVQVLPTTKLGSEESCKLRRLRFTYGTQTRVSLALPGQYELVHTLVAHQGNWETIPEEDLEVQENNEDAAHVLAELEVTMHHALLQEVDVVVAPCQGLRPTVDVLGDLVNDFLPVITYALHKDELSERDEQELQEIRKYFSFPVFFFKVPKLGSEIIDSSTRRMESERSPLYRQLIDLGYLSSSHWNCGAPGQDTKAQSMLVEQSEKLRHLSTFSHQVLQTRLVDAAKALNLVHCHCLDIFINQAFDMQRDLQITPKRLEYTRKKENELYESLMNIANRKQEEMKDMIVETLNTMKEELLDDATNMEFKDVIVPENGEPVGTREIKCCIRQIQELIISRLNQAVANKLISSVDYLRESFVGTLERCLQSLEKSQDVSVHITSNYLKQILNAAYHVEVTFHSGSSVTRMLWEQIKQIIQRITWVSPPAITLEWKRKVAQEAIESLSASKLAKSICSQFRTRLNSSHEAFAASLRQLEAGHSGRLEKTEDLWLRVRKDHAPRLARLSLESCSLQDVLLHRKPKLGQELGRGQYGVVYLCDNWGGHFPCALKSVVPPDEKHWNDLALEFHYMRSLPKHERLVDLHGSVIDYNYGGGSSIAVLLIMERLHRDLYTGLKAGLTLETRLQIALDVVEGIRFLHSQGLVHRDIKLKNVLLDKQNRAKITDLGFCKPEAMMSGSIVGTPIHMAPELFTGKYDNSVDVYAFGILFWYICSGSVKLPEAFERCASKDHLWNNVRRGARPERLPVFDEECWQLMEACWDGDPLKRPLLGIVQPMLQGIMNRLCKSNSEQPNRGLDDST
The experiment in a line: Selectivity interaction (KinomeScan (DiscoverX)) EUB0000695a DSTYK. Conditions: at 100 nM.

The target of assay [5] is Phosphatidylinositol 4,5-bisphosphate 3-kinase catalytic subunit gamma isoform (Homo sapiens) (UniProt P48736). As to the kind of experiment: Selectivity interaction (KinomeScan (DiscoverX)) EUB0000045b PIK3CG.
Sequence of Phosphatidylinositol 4,5-bisphosphate 3-kinase catalytic subunit gamma isoform (Homo sapiens) (P48736 whole entry, looked up, canonical isoform): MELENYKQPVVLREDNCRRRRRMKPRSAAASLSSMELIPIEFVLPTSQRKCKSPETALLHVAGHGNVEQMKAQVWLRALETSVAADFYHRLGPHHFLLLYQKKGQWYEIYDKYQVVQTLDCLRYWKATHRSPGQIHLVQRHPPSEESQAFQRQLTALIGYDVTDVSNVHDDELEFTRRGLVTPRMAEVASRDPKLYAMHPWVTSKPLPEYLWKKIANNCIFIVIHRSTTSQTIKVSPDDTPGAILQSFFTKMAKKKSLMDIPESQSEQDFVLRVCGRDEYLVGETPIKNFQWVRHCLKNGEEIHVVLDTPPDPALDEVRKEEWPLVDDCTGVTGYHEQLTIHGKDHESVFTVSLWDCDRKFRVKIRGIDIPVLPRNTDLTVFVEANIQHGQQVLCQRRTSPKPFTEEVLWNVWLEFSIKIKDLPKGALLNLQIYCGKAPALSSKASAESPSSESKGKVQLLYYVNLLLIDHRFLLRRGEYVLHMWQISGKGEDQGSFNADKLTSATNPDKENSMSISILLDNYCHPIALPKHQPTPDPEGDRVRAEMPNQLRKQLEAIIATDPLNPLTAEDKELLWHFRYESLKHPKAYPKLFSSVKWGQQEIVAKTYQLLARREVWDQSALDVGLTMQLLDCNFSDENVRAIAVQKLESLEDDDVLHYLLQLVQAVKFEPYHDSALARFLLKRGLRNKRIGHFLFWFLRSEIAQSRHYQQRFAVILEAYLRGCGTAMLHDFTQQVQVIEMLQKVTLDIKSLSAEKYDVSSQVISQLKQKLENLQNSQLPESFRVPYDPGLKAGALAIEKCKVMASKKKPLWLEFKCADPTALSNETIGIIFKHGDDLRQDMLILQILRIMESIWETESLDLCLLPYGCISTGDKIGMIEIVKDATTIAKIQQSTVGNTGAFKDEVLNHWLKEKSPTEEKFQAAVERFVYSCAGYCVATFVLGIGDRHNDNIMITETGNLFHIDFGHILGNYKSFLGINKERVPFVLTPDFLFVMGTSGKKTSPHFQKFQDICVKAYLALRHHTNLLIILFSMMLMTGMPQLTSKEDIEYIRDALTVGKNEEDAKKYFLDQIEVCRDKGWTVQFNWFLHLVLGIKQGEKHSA

Sequence of Dual specificity mitogen-activated protein kinase kinase 1 (Q02750 whole entry): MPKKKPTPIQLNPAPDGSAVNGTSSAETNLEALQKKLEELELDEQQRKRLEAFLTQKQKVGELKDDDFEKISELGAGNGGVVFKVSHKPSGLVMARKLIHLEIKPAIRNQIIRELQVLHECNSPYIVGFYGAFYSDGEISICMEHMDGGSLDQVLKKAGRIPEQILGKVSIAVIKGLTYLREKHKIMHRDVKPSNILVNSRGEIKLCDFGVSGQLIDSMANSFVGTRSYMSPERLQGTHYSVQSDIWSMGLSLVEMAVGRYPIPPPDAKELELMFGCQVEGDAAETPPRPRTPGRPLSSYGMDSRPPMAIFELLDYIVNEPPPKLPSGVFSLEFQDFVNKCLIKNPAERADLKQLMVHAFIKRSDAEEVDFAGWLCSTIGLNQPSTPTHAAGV

Regarding `Cn1cc(-n2cnc3c(NCc4nc5cc(Cl)c(Cl)cc5[nH]4)nc(N4CCOCC4)nc32)cn1`, the % of control in assay [1] is -2.06%.

As to `Cc1cc([C@@H](C)Nc2ccccc2C(=O)O)c2nc(N3CCOCC3)cc(=O)n2c1` [AZD-6482], the % of control in assay [2] is 96%.

Usually Ki stands for the dissociation constant of the complex between target and ligand, obtained from inhibition or displacement. In assay [3], `Cc1cnc(Nc2ccc(F)cc2Cl)nc1-c1c[nH]c(C(=O)N[C@H](CO)c2cccc(Cl)c2)c1` gave a Ki greater than 4 µM.

In the case of `Cc1cc(F)c(C(=O)Nc2cccc(-c3nncn3C(C)C)n2)cc1-n1cnc(C2CC2)c1`, in assay [4], the % of control came to 79%.

Turning to `C=CC(=O)Nc1cc(-n2c(=O)ccc3cnc4ccc(-c5ccc(NS(C)(=O)=O)cc5)cc4c32)ccc1C`, the % of control in assay [5] (at 1 µM) is 2.8%; in assay [5] (at 10 µM) it was 0%.
